The results in this text go back to US10647699B2, “Substituted 2-oxyimidazolylcarboxamides as pesticides” (Bayer CropScience Aktiengesellschaft, priority 2016, dated 2020).

For series [1], the system named is Myzus persicae. Description: Myzus persicae spray test (MYZUPE), Chinese cabbage leaf discs. The class given is in vivo. The conditions noted are these: for Emax at 100 g/ha: MYZUPE, 100 g of ai/ha, read-out: % efficacy. How it is done: Myzus persicae—Spray Test
To produce a suitable preparation of active compound, 1 part by weight of active compound is dissolved using the specified parts by weight of solvent and made up with water containing an emulsifier concentration of 1000 ppm until the desired concentration is attained. To produce further test concentrations, the formulation is diluted with emulsifier-containing water.
Discs of Chinese cabbage leaves (Brassica pekinensis) infested by all stages of the green peach aphid (Myzus persicae) are sprayed with an active compound formulation of the desired concentration.
After 5 or 6 days, the efficacy in % is determined. 100% means that all the aphids have been killed; 0% means that no aphids have been killed.
Myzus persicae—Spray Test (MYZUPE)
Discs of Chinese cabbage leaves (Brassica pekinensis) infested by all stages of the green peach aphid (Myzus persicae) are sprayed with an active compound preparation of the desired concentration.
After the desired period of time, the efficacy in % is determined. 100% means that all the aphids have been killed; 0% means that no aphids have been killed.

For series [2], the system named is Myzus persicae. Kind of series: Myzus persicae oral test (MYZUPE O). The class given is in vivo. The conditions noted are these: for Emax at 0.8 ppm / Emax at 4 ppm: MYZUPE O, 5 dat, read-out: % efficacy. How it is done: Solvent: 100 parts by weight of acetone
To produce a suitable preparation of active compound, 1 part by weight of active compound is dissolved using the specified parts by weight of solvent and made up with water until the desired concentration is attained.
50 μl of the active compound preparation are transferred into microtitre plates and made up to a final volume of 200 μl with 150 μl of IPL41 insect medium (33%+15% sugar). Subsequently, the plates are sealed with parafilm, which a mixed population of green peach aphids (Myzus persicae) within a second microtitre plate is able to puncture and imbibe the solution through it.
After 5 days, the efficacy in % is determined. 100% means that all the aphids have been killed; 0% means that no aphids have been killed.
Myzus persicae—Oral Test (MYZUPE O)
After 5 or 6 days (dat), the efficacy in % is determined. 100% means that all the aphids have been killed; 0% means that no aphids have been killed.

Series [3] is described as follows: log P by HPLC on reversed-phase columns (OECD Guideline 117), neutral range. The class given is physicochemical. The conditions noted are these: for chromatographic logP: reversed-phase (C18) HPLC column.
The mark [4] stands for this setting: after 6 days, application rate 500 g/ha.
Where [5] appears, read: after 5 days, application rate 20 ppm.
Where [6] appears, read: after 5 days, application rate 500 g/ha.

Where two headings read alike, the source gives them in different places.

Turning to `Cc1nc(C(=O)Nc2cccnc2)c[nH]1` [Comparative Ex. 1, reference compound], the Emax at 100 g/ha in the series on Myzus persicae [1] (Myzus persicae, foliar, 5/6 dat) turned out to be 0%. Besides, in the series on Myzus persicae [2] (Myzus persicae, po, 120 h), the Emax at 0.8 ppm turned out to be 0% and the Emax at 4 ppm turned out to be 0%.
On to `O=C(Nc1cccnc1)c1c[nH]cn1` [Comparative Ex. 2, reference compound], for which, in the series with Myzus persicae [1] (Myzus persicae, foliar, 144 h, 6 dat), the Emax at 100 g/ha is 0%. For the same molecule, in the series on Myzus persicae [2] (Myzus persicae, po, 120 h), the Emax at 0.8 ppm amounted to 0% and the Emax at 4 ppm amounted to 0%.
Regarding `CN(C(=O)c1cnc(OCc2ncccn2)n1C)c1cccnc1` [Example II-11], the LogP-neutral in series [3] (pH 7.8) was found to be 0.53.
For `CN(C(=O)c1cnc(Oc2ccccc2Cl)n1C)c1cccnc1` [Example II-13], the LogP-neutral in series [3] (HPLC, neutral range pH 7.8) came to 1.94. Moreover, the efficacy in the series with Myzus persicae [1] (setting [4]) and with Myzus persicae [2] (setting [5]) was 100% throughout.
In series [3] (HPLC, neutral range pH 7.8), `CN(C(=O)c1cnc(Oc2ccccn2)n1C)c1cccnc1` [Example II-16] returned a LogP-neutral of 1.13. Also, in the series on Myzus persicae [2] (setting [5]), the efficacy came out at 100%.
As for `CN(C(=O)c1cnc(OCc2ccc(F)cc2)n1C)c1cccnc1` [Example II-18], the efficacy in the series with Myzus persicae [1] (setting [4]) and in the series on Myzus persicae [2] (setting [5]) was 100% throughout.
`CCC(C)Oc1ncc(C(=O)N(C)c2cccnc2)n1C` (stereo not drawn) [Example II-20] yielded a LogP-neutral in series [3] (pH 7.8) of 1.75. The efficacy in the series with Myzus persicae [1] (setting [4]) and with Myzus persicae [2] (setting [5]) was 100% each time.
In series [3] (pH 7.8), `CN(C(=O)c1cnc(OC2CCCC2)n1C)c1cccnc1` [Example II-21] showed a LogP-neutral of 1.83. The efficacy in the series with Myzus persicae [1] (setting [4]) and with Myzus persicae [2] (setting [5]) was 90% each time.
As to `CN(C(=O)c1cnc(OC2CCCCC2)n1C)c1cccnc1` [Example II-22], the LogP-neutral in series [3] (pH 7.8) is 2.15. Further, the efficacy in the series with Myzus persicae [1] (setting [4]) and with Myzus persicae [2] (setting [5]) was 90% in each case.
For the molecule `CN(C(=O)c1cnc(Oc2ccc(Cl)c(Cl)c2)n1C)c1cccnc1` [Example II-28], the LogP-neutral in series [3] (HPLC, neutral range pH 7.8) is recorded as 2.57. In addition, the efficacy in the series with Myzus persicae [1] (setting [6]) is 100%; in the series on Myzus persicae [2] (setting [5]) it was 90%.
In turn, `COc1ccc(Oc2ncc(C(=O)N(C)c3cccnc3)n2C)cn1` [Example II-39] showed a LogP-neutral in series [3] (pH 7.8) of 1.5. The efficacy in the series on Myzus persicae [1] (setting [6]) and with Myzus persicae [2] (setting [5]) was 90% in each case.
`Cc1ccc(Oc2ncc(C(=O)N(C)c3cccnc3)n2C)cn1` [Example II-44] showed a LogP-neutral in series [3] (pH 7.8) of 1.26. For the same molecule, the efficacy with Myzus persicae [1] (setting [6]) was 90%; with Myzus persicae [2] (setting [5]), 100%.
`CCOc1ncc(C(=O)N(CC)c2cccnc2)n1C` [Example II-48] had a LogP-neutral in series [3] (pH 7.8) of 1.45. Further, the results for the efficacy with Myzus persicae [1] (setting [6]) and in the series with Myzus persicae [2] (setting [5]) were 90% and 100%, respectively.
As for `CN(C(=O)c1cnc(Oc2ccc(Oc3ccc(F)nc3)nc2)n1C)c1cccnc1` [Example II-49], the LogP-neutral in series [3] (pH 7.8) was found to be 1.86. Moreover, the efficacy with Myzus persicae [1] (setting [6]) was determined as 90%; in the series with Myzus persicae [2] (setting [5]), 100%.
`CN(C(=O)c1cnc(Oc2ccc(Oc3ccc(Oc4ccc(F)nc4)nc3)nc2)n1C)c1cccnc1` [Example II-50]: the LogP-neutral in series [3] (pH 7.8) turned out to be 2.3. The results for the efficacy in the series on Myzus persicae [1] (setting [6]) and in the series with Myzus persicae [2] (setting [5]) were 90% and 100%, respectively.
With `CCN(C(=O)c1cnc(Oc2ccc(Oc3ccc(Cl)nc3)nc2)n1C)c1cccnc1` [Example II-51], in series [3] (pH 7.8), the LogP-neutral was 2.26. In addition, the efficacy in the series with Myzus persicae [1] (setting [6]) and with Myzus persicae [2] (setting [5]) was 100% throughout.
The molecule `Cc1ccncc1Oc1ncc(C(=O)N(C)c2cccnc2)n1C` [Example II-53] displayed a LogP-neutral in series [3] (HPLC, neutral range pH 7.8) of 1.24. Besides, the results for the efficacy in the series on Myzus persicae [1] (setting [6]) and with Myzus persicae [2] (setting [5]) were 90% and 100%, respectively.
Regarding `Cc1cncc(Oc2ncc(C(=O)N(C)c3cccnc3)n2C)c1` [Example II-54], the LogP-neutral in series [3] (pH 7.8) amounted to 1.31. Besides, the efficacy with Myzus persicae [1] (setting [6]) worked out at 90%; in the series on Myzus persicae [2] (setting [5]) it was 100%.
On to `CN(C(=O)c1cnc(Oc2cccnc2)n1C)c1cccnc1` [Example II-55], for which the LogP-neutral in series [3] (HPLC, neutral range pH 7.8) stood at 1.08. Also, the efficacy in the series with Myzus persicae [1] (setting [6]) and in the series on Myzus persicae [2] (setting [5]) was 100% in each case.
On to `CN(C(=O)c1cnc(Oc2ccc(C(F)(F)F)nc2)n1C)c1cccnc1` [Example II-56], for which the LogP-neutral in series [3] (pH 7.8) is reported as 1.9. The efficacy with Myzus persicae [1] (setting [6]) worked out at 90%; with Myzus persicae [2] (setting [5]), 100%.
Consider `Cc1cc(Oc2ncc(C(=O)N(C)c3cccnc3)n2C)cnc1Cl` [Example II-57], for which, in series [3] (pH 7.8), the LogP-neutral is recorded as 1.78. The efficacy in the series with Myzus persicae [1] (setting [6]) is given as 90%; in the series on Myzus persicae [2] (setting [5]), 100%.
The corresponding values for `Cc1cc(Cl)ncc1Oc1ncc(C(=O)N(C)c2cccnc2)n1C` [Example II-59] are 1.68, 90% and 100%.
Take `COc1cncc(Oc2ncc(C(=O)N(C)c3cccnc3)n2C)c1` [Example II-60]: the LogP-neutral in series [3] (pH 7.8) is 1.28. For the same molecule, the efficacy in the series with Myzus persicae [1] (setting [6]) is 90%; in the series with Myzus persicae [2] (setting [5]) it was 100%.
Taken in the same sequence, the figures for `CN(C(=O)c1cnc(Oc2ccc(Br)nc2)n1C)c1cccnc1` [Example II-61] were 1.63, 100% and 90%.
Regarding `CN(C(=O)c1cnc(Oc2cncc(C#N)c2)n1C)c1cccnc1` [Example II-62], in series [3] (HPLC, neutral range pH 7.8), the LogP-neutral is on record as 1.27. For the same molecule, the efficacy in the series on Myzus persicae [1] (setting [6]) worked out at 90%; with Myzus persicae [2] (setting [5]) it was 100%.
As to `CN(C(=O)c1cnc(Oc2cnc3ccccc3c2)n1C)c1cccnc1` [Example II-63], in series [3] (HPLC, neutral range pH 7.8, read-out: LogP-neutral), the chromatographic logP was found to be 1.72. Moreover, in the series with Myzus persicae [1] (Myzus persicae, foliar, 120 h, 5 dat), the Emax at 100 g/ha turned out to be 90%. Besides, the pest or weed control at 500 g/ha in the series with Myzus persicae [1] (Myzus persicae, foliar, 120 h, after 5 days, application rate 500 g/ha, read-out: efficacy) stood at 90%. For the same molecule, in the series with Myzus persicae [2] (Myzus persicae, po, 120 h), the Emax at 0.8 ppm came to 90% and the Emax at 4 ppm came to 100%. In the series with Myzus persicae [2] (Myzus persicae, po, 120 h, after 5 days, application rate 20 ppm, read-out: efficacy), the pest or weed control at 20 ppm was found to be 100%.
In turn, `COc1cc(Oc2ncc(C(=O)N(C)c3cccnc3)n2C)cnc1OC` [Example II-64] came in with a LogP-neutral in series [3] (pH 7.8) of 1.49. The efficacy with Myzus persicae [1] (setting [6]) was found to be 100%; with Myzus persicae [2] (after 5 days, application rate 4 ppm), 100%.
In series [3] (pH 7.8), `CN(C(=O)c1cnc(Oc2cnccc2Cl)n1C)c1cccnc1` [Example II-65] displayed a LogP-neutral of 1.4. The efficacy with Myzus persicae [1] (setting [6]) and in the series on Myzus persicae [2] (setting [5]) was 100% each time.
`CN(C(=O)c1cnc(Oc2cccnc2Cl)n1C)c1cccnc1` [Example II-66]: the LogP-neutral in series [3] (HPLC, neutral range pH 7.8) was determined as 1.45. The efficacy with Myzus persicae [1] (setting [6]) and with Myzus persicae [2] (setting [5]) was 100% in each case.
As for `CN(C(=O)c1cnc(Oc2cncc(Br)c2)n1C)c1cccnc1` [Example II-67], the LogP-neutral in series [3] (pH 7.8) is reported as 1.62. The efficacy with Myzus persicae [1] (setting [6]) and with Myzus persicae [2] (setting [5]) was 100% in each case.
On to `CN(C(=O)c1cnc(Oc2ccc(Oc3ccc(Cl)nc3)nc2)n1C)c1cccnc1` [Example II-69], for which the LogP-neutral in series [3] (pH 7.8) is 1.94.
The same measure, in the same setting: as for `COc1cccc(Oc2ncc(C(=O)N(C)c3cccnc3)n2C)c1` [Example II-76], the figure is 1.75; as for `CN(C(=O)c1cnc(OCC(F)(F)F)n1C)c1cccnc1` [Example II-96], 0.9; as for `CCN(C(=O)c1cnc(Oc2cncc(Cl)c2)n1C)c1cccnc1` [Example II-97], 2.03.
`CC(C)Oc1ncc(C(=O)Nc2cccnc2)n1C` [II-1-H]: in series [3] (pH 7.8), the “log P[n]” value was 1.61.
Take `CN(C(=O)c1cnc(Cl)n1C)c1cccnc1` [IX-1, 2-chloro-N, 1-dimethyl-N-(pyridin-3-yl)-1H-imidazole-5-carboxamide]: the chromatographic logP in series [3] (pH 7.8, HPLC-MS, neutral, read-out: log P[n]) came to 0.88.
With `Cn1c(C(=O)Nc2cccnc2)c[nH]c1=O` [VI-1-H], the “log P[n]” value in series [3] (pH 7.8) was 0.1.
